Measurements published in patent publication EP0576227A2, “2'-Deoxy-2',2'-difluoro(2,6,8-substituted) purine nucleosides having anti-viral and anti-cancer activity and intermediates” (ELI LILLY AND COMPANY, priority 1992, dated 1993).

Experiments:
Hepatitis B Virus = Hepatitis B Virus Test (HBV DNA in supernatant of Hep10A cells, PCR / Southern blot); type: cell-based, human Hepatitis B Virus (HBV); details: 240 h
Text: Plasmids were constructed using standard recombinant DNA techniques; see Sambrook, J., et al., Molecular Cloning: A Laboratory Manual, 2nd Edition (1989), Cold Spring Harbor Press, Cold Spring Harbor, NY. Plasmid pTHBV contains a head-to-tail dimer of the human Hepatitis B Virus (HBV) genome, subtype adw, clone into the EcoR I site of pUC9. […] and subcloned into the Sal I site of pTHBV after a two base fill-in reaction with the Klenow fragment of E. coli DNA polymerase I.
HepG2 cells (human hepatoblastoma, ATCC HB 8065) were routinely passaged in growth medium consisting of EARLE'S minimal essential media (Grand Island Biological Company (GIBCO) Bethesda Research Laboratories (BRL), Life Technologies, Inc., Gathersburg, MD.) supplemented with sodium pyruvate, 10 percent fetal bovine serum, 100 units/ml penicillin, and 100 µg/ml streptomycin. Hep10A cells were derived from HepG2 cells. Briefly, HepG2 cells were seeded into 60 mm culture dishes in growth medium, and when approximately 50 percent confluent, were transfected with pTHBVneo using the calcium phosphate precipitation method described by Graham, F.L. and Van der Eb in Virology, 52, p 456-467 (1973). After four hours of post-transfection, the cells were shocked with 10 percent dimethylsulfoxide and 20 percent glucose for 5 minutes, after which they were allowed to recover for 24 horus. The transfected cells were passaged and reseeded in the presence of growth medium containing 800 µg/ml geneticin. The cells were monitored for the appearance of geneticin resistant cells. A genecitin resistant cell line was established, and routinely passaged in growth medium containing 400 µg/ml geneticin. This cell line will be referred to as Hep10A.
Hep10A cells were seeded into 96-well microtiter plates at a density of approximately 50,000 cells per well, allowed to grow to confluence, and maintained at confluence for 2 to 4 days to allow Hepatitus B Virus derivative HBV DNA levels to stabilize; see Sells, M.A., et al., J. Virol., 62, p 2836-2844 (1987) and Korba, B.E., et al., Antiviral Res., 15, p 217-228 (1991). At this time, cells were treated with 2'-deoxy-2'-fluoroarabino-5-iodouridine (FIAU) and the compound of Example 5 for 10 days, with daily changes of media containing fresh drug. FIAU was used as a positive control. On day 10, culture supernatant samples were taken and stored at 4°C until needed. PCR analysis was performed on supernatant samples using appropriate primers to amplify a 477 base pair fragment from the "a" determinant of the surface antigen gene of HBV subtype adw. Following eletrophoresis through agarose gels, the DNA was transferred to nylon membranes (Optiblot™, IBI, New Haven, CT) by capillary action (Southern, 1975) using 1X saline sodium citrate (SSC) (1X SSC=0.15 M NaCl, 0.015 M sodium citrate). After baking in vacuo for 30 minutes, the blots were hybridized for 15 to 18 hours to 1x10⁶ cpm/ml of […] the method of random priming (Feinberg and Vogelstein, 1983). Hybridization was carried out at 42°C using 50 percent N,N-dimethylformamide, 6X saline sodium phosphate ethylenediamine tetraacetic acid (SSPE), 1.0 percent sodium dodyl sulfate (SDS), and 50 µg/ml salmon sperm DNA (1X SSPE=0.18 M NaCl; […] NaH₂PO₄, pH 7.4; 1 mmol ethylene diamine tetraacetic acid (EDTA)). The hybridized blots were washed as follows: twice in 2X SSC/0.1 percent SDS at room temperature for 1 hour, once in 0.1X SSC/0.1 percent SDS at room temperature for 30 minutes, and once in 0.1x SSC/0.1 percent supplemented with SDS at 65°C for 15 minutes. The filters were exposed to x-ray film and quantitated by densitometry.

[1] = tested on: HC1 human colon carcinoma; experiment: HC1 human colon carcinoma xenograft in mice, tumor weight inhibition; type: in vivo, Nu/Nu CD-1 mice; details: 14 day delay
Text: The HC1 human colon carcinoma xenograft was obtained in 1987 from Drs. Peter and Janet Houghton, St. Jude Children's Hospital, Memphis, TN. The tumor is a moderately well-differentiated adenocarcinoma of the ascending colon [British Journal of Cancer, 37, p 213-223 (1987)]. The first passage tumor was stored in liquid nitrogen using standard techniques. The tumors were maintained in serial passage Nu/Nu CD-1 mice (Charles River Laboratories, Portage, MI.).
The study testing the efficacy of these compounds against HC1 human colon carcinoma was initiated by removing a tumor from passage animals and mincing it into 1 to 3 mm square fragments using sterile techniques. Tumor pieces were checked for sterility using both an Antibiotic Medium 1 and Brain Heart Infusion (Difco; Detroit, MI). Tumor pieces were implanted subcutaneously in the auxilary region of recipient mice by trocar. Drug therapy on the appropriate schedule was initiated 14 days after tumor implantation. Drugs were dissolved in Emulphor for all experiments. All animals were weighed at the beginning and end of drug treatment. Food and water were provided ad libitum. On day 14 after the initiation of therapy, two dimensional measurements (width and length) of all tumors were taken using electronic calipers interfaced to a computer. Tumor weights were calculated from these measurements using the following formula: Tumor Weight (mg) = Tumor Length (mm) X Tumor Width (mm)²/2
For all data, the tumor weight was rounded to the nearest tenth of a gram for analysis. No group is included in the analysis for therapeutic activity in which deaths attributable to drug toxicity exceeded 20 percent of the treated group. Compounds are considered active if more than 60 percent inhibition of tumor growth, as determined by tumor weight, is achieved at maximally tolerated doses.
In Table 2 which follows, Column 1 gives the example number of the compound tested; Column 2, the dose level; Column 3, the route administered; Column 4, the dosage schedule; Column 5, the percent inhibition of the tumor; and Column 6; the toxic deaths observed prior to completion of the study.

[2] = read-out: Percent Inhibition at Specified µg/ml conc.
[3] = 05 mg/kg, Intra-Peritoneal 0.5 ml, 1,3,5,7 9
[4] = 10 mg/kg, Intra-Peritoneal 0.5 ml, 1,3,5,7 9
[5] = 20 mg/kg, Intra-Peritoneal 0.5 ml, 1,3,5,7 9
[6] = 40 mg/kg, Intra-Peritoneal 0.5 ml, 1,3,5,7 9
[7] = 80 mg/kg, Intra-Peritoneal 0.5 ml, 1,3,5,7,9

CNc1nc(N)nc2c1ncn2[C@@H]1O[C@H](CO)[C@@H](O)C1(F)F [Example 5, 2-deoxy-2,2-difluoro-D-ribofuranosyl-1-β-(2-amino-6-methylaminopurine)]
inhibition at 0.1 µg/mL (Hepatitis B Virus; [2]): 56.9%
inhibition at 1 µg/mL (Hepatitis B Virus; [2]): 81.9%
inhibition at 10 µg/mL (Hepatitis B Virus; [2]): 84.6%
inhibition at 100 µg/mL (Hepatitis B Virus; [2]): 83.9%
IC50 (Hepatitis B Virus; read-out: concentration required to inhibit HBV DNA replication by 50 percent): < 0.1 µg/mL
Percent Inhibition of Tumor [1, 3]: 92%
Toxic Deaths [1, 3]: 0/8
Percent Inhibition of Tumor [1, 4]: 92%
Toxic Deaths [1, 4]: 0/8
Percent Inhibition of Tumor [1, 5]: 93%
Toxic Deaths [1, 5]: 0/8
Percent Inhibition of Tumor [1, 6]: 94%
Toxic Deaths [1, 6]: 1/8
Percent Inhibition of Tumor [1, 7]: 95%
Toxic Deaths [1, 7]: 0/8
